Assay results taken from patent US8722035B2, “Formulations including digestive enzymes, polysorbate-based surfactants and probiotics” (Master Supplements, Inc., priority 2007, dated 2014).

Legend:
[1] = test system: Lactobacillus acidophilus LA-1; assay: Growth of Lactobacillus acidophilus LA-1 in broth, plated on MRS agar (Examples 1 and 4); format: cell-based
Protocol: • I) Lactobacillus acidophilus LA-1 was inoculated at one (1) million CFU/ml into 500 ml of sterile broth medium conta Ming 2% casein, 2% corn starch, 0.1% calcium carbonate, 0.1% magnesium carbonate, and 0.05% yeast extract (Difco); a medium in which it is difficult to achieve significant Lactobacillus growth but which contains typical nutrients found in human diets. The inoculated broth (contained in 1 L Erlenmeyer flasks) was incubated at 37 C for 24 hours and then plated on MRS auar to determine CFU/ml. Result (average of triplicate samples): 12 million CFU/ml. • II) The test in (I) was repeated where the medium also contained 0.1% Tween-80. Result: 14 million CFU/ml. • III) The test in (I) was repeated where the medium was pre-treated with digestive enzymes for 24 hours prior to sterilization at 121 C for 20 minutes at 15 psi. The pre-treatment involved adding 250 mg of a lactogenic enzyme mixture containing papain (10,000 TU), bromelain (50 GDU), alpha-amylase (1,000 SKB) and glucoamylase (2.5 AG). Result: 87 million CFU/ml • IV) The test in (III) was repeated where 0.1% Tween-80 (as DP35) was added during the enzyme pre-treatment procedure. […]

[2] = test system: Bifidobacterium lactis BL04; assay: Anaerobic growth of Bifidobacterium lactis BL04 in broth, plated on MRS agar plus L-cysteine HCl (Example 5); format: cell-based; details: inoculum 2 million CFU/ml, casein/rye/asparagus/barley broth, anaerobic 37 C, 24 hours, 0.025% Tween-80, 250 mg enzyme mixture, 24 h pre-treatment, untreated Test I 8 million CFU/ml
Protocol: • I) Bifidobacterium lactis BL04 was inoculated at two (2) million CFU/ml into 500 ml of sterile broth medium containing 2% casein, 1% rye flour, 1% asparagus powder (ground freeze-dried asparagus), 1% barley flour, 0.1% calcium carbonate, 0.1% magnesium carbonate, and 0.05% yeast extract (Difco); a medium in which it is generally difficult to achieve significant Bifidobacteria growth but contains typical nutrients fbund in human diets. The inoculated broth (contained in 1 L Erlenmeyer flasks) was incubated anaerobically at 37 C for 24 hours and then plated on MRS agar plus L-cysteine HCl, to determine CFU/ml (plates were incubated anaerobically), Result (average of triplicate samples): 8 million CFU/ml. • II) The test in I) was repeated where the medium also contained 0.025% Tween-80. Result: 3 million CFU/ml. • III) The test in I) was repeated where the medium was pre-treated with digestive enzymes for 24 hours prior to sterilization at 121 C for 20 minutes at 15 psi. The pre-treatment involved adding 250 mg of a bifidogenic enzyme mixture containing cellulase-TL (1,000 CU), hemicellulase (1,000 HCU), beta-glucanase (50 BGU), papain (10,000 TU) and bromelain (50 GDU). Result 74 million CFU/ml. • IV) The test in III) was repeated where 0.025% Tween-80 was added during the enzyme pre-treatment procedure.

[3] = test system: Lactobacillus rhamnosus HN001; assay: Growth of Lactobacillus rhamnosus HN001 in broth, plated on MRS agar (Example 2); format: cell-based; details: procedures of Example 1, untreated Test I 6 million CFU/ml
Protocol: • I) Lactobacillus acidophilus LA-1 was inoculated at one (1) million CFU/ml into 500 ml of sterile broth medium conta Ming 2% casein, 2% corn starch, 0.1% calcium carbonate, 0.1% magnesium carbonate, and 0.05% yeast extract (Difco); a medium in which it is difficult to achieve significant Lactobacillus growth but which contains typical nutrients found in human diets. The inoculated broth (contained in 1 L Erlenmeyer flasks) was incubated at 37 C for 24 hours and then plated on MRS auar to determine CFU/ml. Result (average of triplicate samples): 12 million CFU/ml. • II) The test in (I) was repeated where the medium also contained 0.1% Tween-80. Result: 14 million CFU/ml. • III) The test in (I) was repeated where the medium was pre-treated with digestive enzymes for 24 hours prior to sterilization at 121 C for 20 minutes at 15 psi. The pre-treatment involved adding 250 mg of a lactogenic enzyme mixture containing papain (10,000 TU), bromelain (50 GDU), alpha-amylase (1,000 SKB) and glucoamylase (2.5 AG). Result: 87 million CFU/ml • IV) The test in (III) was repeated where 0.1% Tween-80 (as DP35) was added during the enzyme pre-treatment procedure.
• The procedures of Example 1 were repeated with Lactobacillus rhamnosus HN001 substituted for Lactobacillus acidophilus LA-1. The results are as follows: Test I): 6 million CFU/ml. Test II): 7.5 million CFU/ml. Test III): 62 million CFU/ml.

[4] = test system: Lactobacillus paracasei F-19; assay: Growth of Lactobacillus paracasei F-19 in broth, plated on MRS agar (Example 3); format: cell-based; details: procedures of Example 1, untreated Test I 14 million CFU/ml
[5] = hydrophile-lipophile balance, designated from 1 to 20; cited from earlier work
[6] = test system: Bifidobacterium bifidum BB-12; assay: Growth of Bifidobacterium bifidum BB-12 in broth (Example 6); format: cell-based; details: untreated Test I 11 million CFU/ml

## CCCCCCCC/C=C\CCCCCCCC(=O)OCCOCC(OCCO)C1OCC(OCCO)C1OCCO (stereo not shown) [Tween-80, polyoxyethylene sorbitan monooleate]
[1]; Example 1, inoculum 1 million CFU/ml, casein/corn starch broth, 37 C, 24 hours, 0.1% Tween-80, 250 mg enzyme mixture, 24 h pre-treatment, untreated Test I 12 million CFU/ml
  viable count of L. acidophilus LA-1 after incubation: 14 million CFU/ml
[2]
  viable count of Bifidobacterium lactis BL04 after incubation: 3 million CFU/ml
[3]
  viable count of L. rhamnosus HN001 after incubation: 7.5 million CFU/ml
[4]
  viable count of L. paracasei F-19 after incubation: 19 million CFU/ml
[5]
  HLB: 15.0
[6]
  viable count of Bifidobacterium bifidum BB-12 after incubation: 5 million CFU/ml

## polyoxyethylene sorbitan monostearate [Tween-60]
[1]; Example 4, procedures of Example 1 with different enzyme mixture and Tween-60 in place of Tween-80, untreated Test I 10 million CFU/ml
  viable count of L. acidophilus LA-1 after incubation: 9 million CFU/ml
